# Test system: HuH-7 replicon cells 5–15 and 9–13 (HCV replication)
# Test: Inhibition of viral replication in HuH-7 replicon cells (HCV RNA / GAPDH RNA by multiplex RT-PCR)
# Format: cell-based
# Conditions: Hepatitis C virus, 72 h; inhibiting 50% of replication; HuH-7 replicon cells, 3 days; read-out: IC50
# Experimental: Compounds were evaluated for inhibition of viral replication according to published procedures (Bartenschlager, R., et. al., Science, 1999, 285, 110) with modifications as follows.
# HuH-7 replicon cells 5–15 and 9–13 were cultured in Dulbecco's minimal essential medium (DMEM) containing high glucose and supplemented with 10% fetal bovine serum (FBS), L-glutamine (2 mM), non-essential amino acids (1×), Penicillin (100 IU/mL)/Streptomycin (100 μg/mL) and G418 (Geneticin, 750 μg/mL). Unless otherwise specified, all media components were obtained from Invitrogen. Replicon cell line stocks were maintained as sub-confluent monolayers by passaging every Monday (1:6 split) and Thursday (1:10 split) and incubated at 37° C. with 5% CO2. Tissue culture plates (96-well white clear bottom plates, Corning #3610) were seeded at 7×10^3 cells/well and incubated for 24 hours prior to addition of the compounds.
# Compounds in dry powder form were diluted in DMSO (30 mM stock). Serial dilutions of each Compound in DMSO (10 mM–0.1 mM) were performed in a 96-well polypropylene plate using a microtiter format. Culture media (200 μl) was added to the corresponding wells of a sterile 96-well round bottom plate. Diluted compound (2 μl) was added to the corresponding wells of the medial plate (final compound concentrations: 100 μM–1 μM). Culture media was removed from the corresponding wells of the 96-well plate containing the replicon cells and 150 μl diluted compound added. Media containing 1% DMSO and a serially diluted IFN were included on each plate. The cultures were incubated at 37° C. with 5% CO2 for 3 days. Cultures were observed visually for cytotoxicity or compound precipitation prior to RNA extraction described below.
# Total cellular RNA was extracted by spin column technology (RNeasy 96, Qiagen) using the vacuum methodology according to the manufacturer's protocol. In brief, culture media was removed and 100 μl RLT lysis buffer containing 0.14M β-mercaptoethanol (β-ME) was added to each well. The plate was kept flat on the laboratory bench and shaken vigorously to lyse the cells. An equal volume of 70% ETOH was mixed with the lysate and added to the corresponding columns of the RNeasy 96-well plate. Vacuum was applied to draw the lysate through the filters. After ventilating the plate, buffer RW1 (1 mL) was drawn through each column. The waste tray was emptied and the filters washed twice with buffer RPE (1 mL/wash). After ventilating the tray, the RNeasy plate was removed and the bottom of the plate struck several times on a stack of paper towels to remove excess wash buffer. The waste tray was removed from the vacuum apparatus and the RNeasy 96-well plate dried by applying vacuum for 10 minutes. Total cellular RNA was eluted from the columns with two washes of 60 μl RNase-free water.
# Relative quantitative multiplex RT-PCR was performed using TaqMan (TM) EZ RT Core Reagent kit (Perkin Elmer) according to the manufacturer's protocol (PE Applied Biosystems User Bulletin #2). Primer 061 (NT 61–82) and 139 (NT 139–158) amplifying a short region in the 5′ untranslated region of the HCV genome were utilized at 300 nM final concentrations. Probe #3 (NT 97–119) labeled with FAM reporter dye was utilized at 200 nM final concentration. Pre-developed human GAPDH primers and probe labeled with VIC reporter dye were obtained from PE Applied Biosystems (# 4310884E) and used according to the manufacturer's protocol. TM RT-PCR master mix was prepared containing the above primers/probe for both target RNA. Total cellular RNA (2 μl) was added to the reaction tubes of a 96-well optical plate that corresponded to the wells of the replicon culture plate. The final volume of each reaction was 50 μl. A standard curve was prepared from ten-fold serial dilutions of total cellular RNA extracated from 10^6 replicon cells and eluted in 30 μl RNase-free water. […]
row,Structure (SMILES),IC50 [µM]
1,"O=C(Cc1ccccc1Br)N/N=C/c1ccccc1OS(=O)(=O)c1ccc(C(F)(F)F)cc1 [Compound 40, 2-((E)-{2-[2-(2-bromophenyl)acetyl]hydrazono}methyl)-phenyl 4-(trifluoromethyl)benzenesulfonate]",< 5
2,"O=C(Cc1ccccc1F)N/N=C/c1ccccc1OS(=O)(=O)c1ccc(C(F)(F)F)cc1 [Compound 41, 2-((E)-{2-[2-(2-fluorophenyl)acetyl]hydrazono}methyl)-phenyl 4-(trifluoromethyl)benzenesulfonate]",< 5
3,"Cc1ccccc1CC(=O)N/N=C/c1ccccc1OS(=O)(=O)c1ccc(C(F)(F)F)cc1 [Compound 42, 2-((E)-{-[2-(2-methylphenyl)acetyl]hydrazono}methyl)-phenyl 4-(trifluoromethyl)benzenesulfonate]",< 5
4,"O=C(Cc1ccc2c(c1)OCO2)N/N=C/c1ccccc1OS(=O)(=O)c1ccc(C(F)(F)F)cc1 [Compound 43, 2-((E)-{2-[2-(1,3-benzodioxol-5-yl)acetyl]hydrazono}methyl)phenyl 4-(trifluoromethyl)benzenesulfonate]",< 5
5,"COc1ccc(CC(=O)N/N=C/c2ccccc2OS(=O)(=O)c2ccc(C(F)(F)F)cc2)cc1 [Compound 44, 2-((E)-{2-[2-(4-methoxyphenyl)acetyl]hydrazono}methyl)-phenyl 4-(trifluoromethyl)benzenesulfonate]",< 5
6,"O=C(CC1CCCCC1)N/N=C/c1ccccc1OS(=O)(=O)c1ccc(C(F)(F)F)cc1 [Compound 45, 2-{(E)-[2-(2-cyclohexylacetyl)hydrazono]methyl}phenyl4-(trifluoromethyl)benzenesulfonate]",< 5
7,"O=C(CCCc1ccccc1)N/N=C/c1ccccc1OS(=O)(=O)c1ccc(C(F)(F)F)cc1 [Compound 46, 2-{(E)-[2-(4-phenylbutanoyl)hydrazono]methyl}phenyl4-(trifluoromethyl)benzenesulfonate]",5 to 50
8,"O=C(CCCCc1ccccc1)N/N=C/c1ccccc1OS(=O)(=O)c1ccc(C(F)(F)F)cc1 [Compound 47, 2-{(E)-[2-(5-phenylpentanoyl)hydrazono]methyl}phenyl4-(trifluoromethyl)benzenesulfonate]",5 to 50
9,"O=C(Cc1cccc(F)c1)N/N=C/c1ccccc1OS(=O)(=O)c1ccc(C(F)(F)F)cc1 [Compound 48, 2-((E)-{2-[2-(3-fluorophenyl)acetyl]hydrazono}methyl)-phenyl 4-(trifluoromethyl)benzenesulfonate]",< 5
10,"COc1ccc2[nH]cc(CC(=O)N/N=C/c3ccccc3OS(=O)(=O)c3ccc(C(F)(F)F)cc3)c2c1 [Compound 49, 2-((E)-{2-[2-(5-methoxy-1H-indol-3-yl)acetyl]hydrazono}methyl)phenyl 4-(trifluoromethyl)benzenesulfonate]",5 to 50
11,"COc1cc(CC(=O)N/N=C/c2ccccc2OS(=O)(=O)c2ccc(C(F)(F)F)cc2)cc(OC)c1 [Compound 50, 2-((E)-{2-[2-(3,5-dimethoxyphenyl)acetyl]hydrazono}methyl)-phenyl 4-(trifluoromethyl)benzenesulfonate]",< 5
12,"COc1ccc(CC(=O)N/N=C/c2ccccc2OS(=O)(=O)c2ccc(C(F)(F)F)cc2)c(OC)c1 [Compound 51, 2-((E)-{2-[2-(2,4-dimethoxyphenyl)acetyl]hydrazono}methyl)-phenyl 4-(trifluoromethyl)benzenesulfonate]",< 5
13,"O=C(Cc1ccc(Br)cc1)N/N=C/c1ccccc1OS(=O)(=O)c1ccc(C(F)(F)F)cc1 [Compound 52, 2-((E)-{2-[2-(4-bromophenyl)acetyl]hydrazono}methyl)-phenyl 4-(trifluoromethyl)benzenesulfonate]",< 5
14,"COc1cccc(OCC(=O)N/N=C/c2ccccc2OS(=O)(=O)c2ccc(C(F)(F)F)cc2)c1 [Compound 53, 2-((E)-{2-[2-(3-methoxyphenoxy)acetyl]hydrazono}methyl)-phenyl 4-(trifluoromethyl)benzenesulfonate]",< 5
15,"O=C(CCc1ccco1)N/N=C/c1ccccc1OS(=O)(=O)c1ccc(C(F)(F)F)cc1 [Compound 54, 2-((E)-{2-[3-(2-furyl)propanoyl]hydrazono}methyl)phenyl4-(trifluoromethyl)benzenesulfonate]",< 5
16,"COc1cc(CC(=O)N/N=C/c2ccccc2OS(=O)(=O)c2ccc(C(F)(F)F)cc2)cc(OC)c1OC [Compound 55, 2-((E)-{2-[2-(3,4,5-trimethoxyphenyl)acetyl]hydrazono}methyl)-phenyl 4-(trifluoromethyl)benzenesulfonate]",> 50
17,"O=C(Cc1ccccc1OCc1ccccc1)N/N=C/c1ccccc1OS(=O)(=O)c1ccc(C(F)(F)F)cc1 [Compound 56, 2-[(E)-(2-{2-[2-(benzyloxy)phenyl]acetyl}hydrazono)methyl]-phenyl 4-(trifluoromethyl)benzenesulfonate]",< 5
18,"O=C(Cc1ccccc1Oc1ccccc1)N/N=C/c1ccccc1OS(=O)(=O)c1ccc(C(F)(F)F)cc1 [Compound 57, 2-((E)-{2-[2-(2-phenoxyphenyl)acetyl]hydrazono}methyl)-phenyl 4-(trifluoromethyl)benzenesulfonate]",< 5
19,"COc1cccc(CCC(=O)N/N=C/c2ccccc2OS(=O)(=O)c2ccc(C(F)(F)F)cc2)c1 [Compound 58, 2-((E)-{2-[3-(3-methoxyphenyl)propanoyl]hydrazono}-methyl)phenyl 4-(trifluoromethyl)benzenesulfonate]",> 50
20,"O=C(CSc1ccccc1)N/N=C/c1ccccc1OS(=O)(=O)c1ccc(C(F)(F)F)cc1 [Compound 59, 2-((E)-{2-[2-(phenylthio)acetyl]hydrazono}methyl)-phenyl 4-(trifluoromethyl)benzenesulfonate]",< 5
21,"O=C(Cc1ccc(I)cc1)N/N=C/c1ccccc1OS(=O)(=O)c1ccc(C(F)(F)F)cc1 [Compound 60, 2-((E)-{2-[2-(4-iodophenyl)acetyl]hydrazono}methyl)-phenyl 4-(trifluoromethyl)benzenesulfonate]",< 5
22,"O=C(Cc1cncc(Br)c1)N/N=C/c1ccccc1OS(=O)(=O)c1ccc(C(F)(F)F)cc1 [Compound 61, 2-((E)-{2-[2-(5-bromopyridin-3-yl)acetyl]hydrazono}methyl)phenyl 4-(trifluoromethyl)benzenesulfonate]",< 5
23,"O=C(Cc1cccc(Br)c1)N/N=C/c1ccccc1OS(=O)(=O)c1ccc(C(F)(F)F)cc1 [Compound 62, 2-((E)-{2-[2-(3-bromophenyl)acetyl]hydrazono}methyl)-phenyl 4-(trifluoromethyl)benzenesulfonate]",< 5
24,"O=C(Cc1ccc(Cl)nc1)N/N=C/c1ccccc1OS(=O)(=O)c1ccc(C(F)(F)F)cc1 [Compound 63, 2-((E)-{2-[2-(6-chloropyridin-3-yl)acetyl]hydrazono}methyl)phenyl 4-(trifluoromethyl)benzenesulfonate]",< 5
25,"O=C(COc1ccccc1)N/N=C/c1ccccc1OS(=O)(=O)c1ccc(C(F)(F)F)cc1 [Compound 64, 2-{(E)-[2-(2-phenoxyacetyl)hydrazono]methyl}phenyl4-(trifluoromethyl)benzenesulfonate]",< 5
26,"O=C(Cc1cccc2occc12)N/N=C/c1ccccc1OS(=O)(=O)c1ccc(C(F)(F)F)cc1 [Compound 65, 2-((E)-{2-[2-(1-benzofuran-4-yl)acetyl]hydrazono}methyl)phenyl 4-(trifluoromethyl)benzenesulfonate]",5 to 50
27,"COc1cc(OC)c(CC(=O)N/N=C/c2ccccc2OS(=O)(=O)c2ccc(C(F)(F)F)cc2)c(OC)c1 [Compound 66, 2-((E)-{2-[2-(2,4,6-trimethoxyphenyl)acetyl]hydrazono}methyl)-phenyl 4-(trifluoromethyl)benzenesulfonate]",5 to 50

# — patent US7026339B2, “Inhibitors of HCV NS5B polymerase” (priority 2003, dated 2006)
